According to patent US7709645B2, “Pyrrolo-pyridine kinase modulators” (SGX Pharmaceuticals, Inc., priority 2004, dated 2010):
Changes are numbered by the printed parent chain.

Experiments:
[1] = target: T1, T315I mutant form of BCR-ABL in Ba/F3 cells (Homo sapiens, UniProt P00519, T315I); assay: Abl_T315I p-ELISA Cellular Assay (BCR-ABL phospho-ELISA); assay type: cell-based; conditions: 60-120 minutes incubation
T1 construct: expressed in transfected cells; host or cells: Ba/F3 cells; the other entry of the earlier key: BCR (P11274, Breakpoint cluster region protein)
T1 sequence (P00519 242-493 T315I limits assumed): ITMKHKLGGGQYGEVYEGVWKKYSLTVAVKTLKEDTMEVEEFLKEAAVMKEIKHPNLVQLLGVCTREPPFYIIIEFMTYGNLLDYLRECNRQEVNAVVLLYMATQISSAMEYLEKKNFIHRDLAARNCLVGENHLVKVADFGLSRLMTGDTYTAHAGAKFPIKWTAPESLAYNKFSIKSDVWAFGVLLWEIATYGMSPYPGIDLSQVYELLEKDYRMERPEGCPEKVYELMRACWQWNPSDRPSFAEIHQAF
Experimental: Cells (Ba/F3 cells transfected with WT BCR-ABL, other kinases, or T315I, Y253F, M351T, E255K, or other mutant forms of BCR-ABL) were grown in the absence of IL-3 at least ½ week before the assay. The day before assay, the cells were fed with fresh media so that at the time of assay the cells were in log phase. Ba/F3 cells that had been grown in the absence of IL-3 for at least ½ week were resuspended in RPMI 1640 so that each well of a 96-well plate would contain approximately 200,000 cells. Cells were distributed in a 96-well plate containing serially diluted concentrations of test compounds. Cells were typically incubated with or without test compounds for 60-120 minutes at 5% CO2, 37° C. The incubation was performed with or without other additives such as 10% FCS or 50% human plasma. After incubation of compounds, lysis buffer was added and incubated for 10-15 minutes; the lysate was cleared by centrifugation.
To make the ELISA plate, commercially available Anti-ABL antibodies (e.g. (Ab-3, Calbiochem OP20) were prepared at a concentration of 0.125 μg/ml in coating buffer (0.1M Na-carbonate, pH 9.5), and plated at 10 ml per plate (12.5 μl 100 μg/ml Ab/10 ml). In a high binding multi-well plate, 100 μl Ab in coating buffer were added to each well, and each plate was covered with a plate seal and incubated overnight at 4° C.
Excess antibody was removed and the ELISA plate was washed 3-4 times with 200 μl of wash buffer (0.05% Tween in PBS, pH 7.4). 150 μl of lysate (see above) were transferred to the ELISA plate. Plates were sealed and incubated 2 hours at room temperature. The detection antibody (e.g. HRP conjugated anti-pTyr or unconjugated α-p-Y 4G10, Upstate) was prepared in assay diluent. The antibody was diluted 1:1000 (stock=2 μg/μl, 200 μg in 100 μl; f.c.=2 μg/ml) in assay diluent and 10 ml of diluted antibody per plate were added. The lysate was removed from the ELISA plates, and wells were washed four times with 200 μl of wash buffer per well. 100 μl of detection antibody was added to each well; the plate was covered, and incubated 1 hr at room temperature (21° C.). Excess detection antibody was removed from the ELISA plates, and the wells were washed four times with 200 μl of wash buffer per well.
If necessary, (i.e. for unconjugated anti-pTyr antibody) secondary antibody (goat anti-rabbit HRP) was diluted 1:3000 in assay diluent (3.33 μl per 10 ml diluent) and added at 10 ml of diluted antibody per plate. Excess secondary antibody was removed from the ELISA plate, and the plate was washed four times with 200 μl per well of wash buffer.
Substrate Reagent A and Substrate Reagent B (Pierce Cat#37070 SuperSignal ELISA Pico Chemiluminescent Substrate) were added immediately before use (10 ml resultant solution per plate). 100 μl substrate were added per well, mixed for 1 minute, and chemiluminescent signal was measured with a luminometer.

[2] = target: T2, Abl T315I kinase domain (unphosphorylated) (Mus musculus, UniProt P00520, T315I); assay: Abl_T315I Bioassay (c-Abl PK/LDH coupled enzyme assay); assay type: biochemical; conditions: 10 μM ATP
T2 construct: purified and unphosphorylated T315I Abl kinase domain; made in house; host or cells: E. coli BL21(DE3) strains
T2 sequence (P00520 242-493 T315I limits assumed): T1 sequence (P00519 242-493 T315I limits assumed) with N95S
Description: Although the first of these examples uses the kinase domain of a mutant form of Abl T315I (“Abl T315I KD”), the kinase assays may use various forms of mutant and wild type enzymes, including, for example, the entire protein, the kinase domain, or a portion thereof (e.g. Abl Y393F). The kinases used in the assays may also be of varying phosphorylation states. In the c-Abl example, a mutant kinase at a zero phosphorylation state was used.
In the c-Abl Pyruvate Kinase (PK)/Lactate Dehydrogenase (LDH) Coupled Assay the protein kinase dependant phosphorylation of a substrate peptide was coupled to the oxidation of NADH. The oxidation of NADH to NAD+ was detected by monitoring a decrease in absorbance at 340 nm.
Materials: Abl substrate peptide=EAIYAAPFAKKK (SEQ ID NO:1)-OH (Biopeptide, San Diego, Calif.); βNADH (Sigma Cat#N-8129, FW=709.4); 2M MgCl2; 1M HEPES buffer, pH 7.5; Phosphoenolpyruvate (PEP) (Sigma Cat#P-7002, FW=234); Lactate dehydrogenase (LDH) (Worthington Biochemical Cat#2756); Pyruvate Kinase (PK) (Sigma Cat#P-9136); ATP (Sigma Cat#A-3377, FW=551); Greiner 384-well UV star plate; and purified and unphosphorylated T315I Abl kinase domain.
Stock Solutions: 10 mM NADH (7.09 mg/ml in miliQH2O) made fresh daily; 10 mM Abl substrate peptide (13.4 mg/ml in miliQH2O) stored at −20° C.; 100 mM HEPES buffer, pH 7.5 (5 ml 1M stock+45 ml miliQH2O); 100 mM MgCl2 (5 ml 2M MgCl2+95 ml dH2O); 100 mM PEP (23.4 mg/ml in dH2O) stored at −20° C.; 10 mM ATP (5.51 mg/ml in dH2O) stored at −20° C. (diluted 50 μl into total of 10 ml miliQH2O daily=50 μM ATP working stock); 1000 U/ml PK (U/mg varies with lot) flash-frozen under liquid N2 and stored at −80° C.; and 1000 U/ml LDH (U/mg varies with lot) flash-frozen under liquid N2 and stored at −80° C.
Standard Assay Setup for 384-well format (50 μl reaction): 300 μM NADH; 10 mM MgCl2; 2 mM PEP; 45 U/ml PK; 60 U/ml LDH; 200 μM Abl substrate peptide; 2.5 μl test compound (in DMSO); 2 μg/ml Abl kinase domain; 10 μM ATP; 100 mM HEPES buffer. Positive controls contained DMSO with no test compound. Negative controls contained 5 μl of 0.5M EDTA (50 mM in the assay). The dephosphorylated form of the c-Abl T315I mutant was used in the biochemical screening assays. The kinase reaction was initiated at time t=0 by the addition of ATP.
Activity was measured by following the time-dependent loss of NADH by absorbance spectroscopy at 340 nm. The linear portion of the resulting progress curve was then analyzed by linear regression to get the activity in absorbance units/time, reported as the slope of that best fit line (moles/unit time can be calculated from using molar extinction coefficient for NADH at 340 nm, 6250M^−1 cm^−1).
Data was evaluated using the equation: Z′=1−[3*(σ++σ−)/|μ+−μ−|](Zhang, et al., 1999 J Biomol Screening 4(2) 67-73), where μ denotes the mean and σ the standard deviation. The subscript designates positive or negative controls. The Z′ score for a robust screening assay should be ≧0.50. The typical threshold=μ+−3*σ+. Any value that falls below the threshold was designated a “hit”.
Dose response was analyzed using the equation: y=min+{(max−min)/(1+10^[compound]−logIC50)}, where y is the observed initial slope, max=the slope in the absence of inhibitor, min=the slope at infinite inhibitor, and the IC50 is the [compound] that corresponds to ½ the total observed amplitude (Amplitude=max−min).
To measure modulation, activation, or inhibition of Abl KD, a test compound was added to the assay at a range of concentrations. Inhibitors may inhibit Abl KD activity at an IC50 in the micromolar range, the nanomolar range, or, for example, in the subnanomolar range.
An open-reading frame for c-Abl was amplified from a Mus musculus (mouse) cDNA library prepared from freshly harvested mouse liver using a commercially available kit (Invitrogen) by PCR using the following primers: […]
The c-Abl T315I KD (kinase domain) was purified as follows. […]

| IC50 [1] | IC50 [2] | SMILES |
| --- | --- | --- |
| 100 to 1000 nM | < 50 nM | COc1ccccc1-c1c[nH]c2ncc(-c3csc(C(=O)N4CCN(C)CC4)c3)cc12 [AE4] |
| < 100 nM | < 50 nM | COc1ccccc1-c1c[nH]c2ncc(-c3cncc(C(=O)N(C)CCN(C)C)c3)cc12 [AE5] |
| < 100 nM | < 50 nM | COc1ccccc1-c1c[nH]c2ncc(-c3cccc(C(=O)N4CCC(CO)CC4)c3)cc12 [AE6] |
| < 100 nM | < 50 nM | COc1ccccc1-c1c[nH]c2ncc(-c3cccc(C(=O)N4CCN(C(C)C)CC4)c3)cc12 [AE7] |
|  | < 50 nM | COc1ccccc1-c1c[nH]c2ncc(-c3ccc4c(c3)C(=O)NCC(=O)N4)cc12 [AE12] |
| 100 to 1000 nM | < 50 nM | CCc1ccccc1-c1c[nH]c2ncc(-c3cncc(C(=O)N(C)C)c3)cc12 [AE15] |
| 100 to 1000 nM | < 50 nM | CCOc1ccccc1-c1c[nH]c2ncc(-c3cncc(C(=O)N(C)C)c3)cc12 [AE16] |
|  | < 50 nM | CCOc1ccccc1-c1c[nH]c2ncc(-c3cncc(C(=O)NC)c3)cc12 [AE17] |
| 100 to 1000 nM | < 50 nM | CCc1ccccc1-c1c[nH]c2ncc(-c3ccnc(F)c3)cc12 [AE18] |
| 100 to 1000 nM | < 50 nM | COc1ccccc1-c1c[nH]c2ncc(-c3c[nH]cn3)cc12 [AE19] |
|  | < 50 nM | COc1ccccc1-c1c[nH]c2ncc(-c3cccc(C(=O)N(C)CCN(C)C)c3)cc12 [AE23] |
|  | < 50 nM | COc1ccccc1-c1c[nH]c2ncc(-c3cccc(C(=O)N4CCN(CCN5CCOCC5)CC4)c3)cc12 [AE24] |
| < 100 nM | < 50 nM | COc1ccccc1-c1c[nH]c2ncc(-c3ccc(O)c(C(=O)N(C)CCN(C)C)c3)cc12 [AE25] |
| 100 to 1000 nM | < 50 nM | O=C(c1cccc(-c2cnc3[nH]cc(-c4ccccc4F)c3c2)c1)N1CCOCC1 [AE29] |
| < 100 nM | < 50 nM | COc1cccc(OC)c1-c1c[nH]c2ncc(-c3cccc(C(=O)N4CCOCC4)c3)cc12 [AE37] |
|  | < 50 nM | Oc1cccc(-c2cnc3[nH]cc(-c4ccoc4)c3c2)c1 [AE47] |
|  | 50 to 200 nM | Oc1cccc(-c2cnc3[nH]cc(Sc4ccccc4)c3c2)c1 [AE51] |
